For 25 compounds, EC50 results are on record in patent US10906890B2, “Triazole phenyl compounds as agonists of the APJ receptor” (AMGEN INC., priority 2016, dated 2021).

This assay deals with human APJ receptor (Homo sapiens (Human), UniProt P35414). The assay is described as follows: [35S]GTPγS binding assay on membranes from CHO cells stably expressing human APJ receptor. Format: biochemical. The conditions noted are these: means of several independent experiments, read-out: Activity hAPJ SPA EC50 IP. A digest of the protocol: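 Membranes from CHO cells stably expressing FLAG-tagged human APJ incubated with [35S]GTPγS in buffer with optimized GDP, MgCl2 and NaCl levels, 90 min at RT. Signal read by imaging; EC50 by non-linear regression from means of several independent experiments.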
For orientation: GTPγS is a poorly hydrolysed GTP analogue; its binding reports G protein activation.

Chain of human APJ receptor (P35414 whole entry): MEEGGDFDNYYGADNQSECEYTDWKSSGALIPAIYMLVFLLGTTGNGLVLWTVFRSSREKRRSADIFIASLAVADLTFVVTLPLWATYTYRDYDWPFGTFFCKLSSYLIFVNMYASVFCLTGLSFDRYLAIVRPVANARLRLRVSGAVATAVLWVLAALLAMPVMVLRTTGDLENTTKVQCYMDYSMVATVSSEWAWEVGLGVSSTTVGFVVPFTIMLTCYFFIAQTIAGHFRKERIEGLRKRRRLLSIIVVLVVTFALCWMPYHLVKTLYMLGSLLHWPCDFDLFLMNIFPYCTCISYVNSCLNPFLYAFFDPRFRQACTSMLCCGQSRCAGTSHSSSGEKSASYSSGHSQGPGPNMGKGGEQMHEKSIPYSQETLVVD

Consider `CO[C@H](c1ncc(C)cn1)[C@H](C)S(=O)(=O)Nc1nnc(-c2ccccc2)n1-c1c(F)cccc1F` [Example 41.0, (1R,2S)-N-(4-(2,6-difluorophenyl)-5-phenyl-4H-1,2,4-triazol-3-yl)-1-methoxy-1-(5-methyl-2-pyrimidinyl)-2-propanesulfonamide], for which the EC50 came to 4.7 nM.
Turning to `Cc1cnc([C@H](OC(C)C)[C@H](C)S(=O)(=O)Nc2nnc(-c3ccccc3)n2C2CCOCC2)nc1` [Example 63.0, (1S,2S)-1-(1-methylethoxy)-1-(5-methyl-2-pyrimidinyl)-N-(5-phenyl-4-(tetrahydro-2H-pyran-4-yl)-4H-1,2,4-triazol-3-yl)-2-propanesulfonamide], the EC50 stood at 420 nM.
In the case of `COc1cccc(OC)c1-n1c(NS(=O)(=O)[C@@H](C)[C@H](OC)c2ncc(C)cn2)nnc1-c1ccc2c(c1)OCO2` [Example 66.0, (1R,2S)-N-(5-(1,3-benzodioxol-5-yl)-4-(2,6-dimethoxyphenyl)-4H-1,2,4-triazol-3-yl)-1-methoxy-1-(5-methyl-2-pyrimidinyl)-2-propanesulfonamide] it was 0.73 nM.
On to `COc1ncnc(OC)c1-n1c(NS(=O)(=O)[C@@H](C)[C@H](C)c2ncc(C)cn2)nnc1-c1cccc(C#N)c1` [Example 50.0, (2S,3R)-N-(5-(3-cyanophenyl)-4-(4,6-dimethoxy-5-pyrimidinyl)-4H-1,2,4-triazol-3-yl)-3-(5-methyl-2-pyrimidinyl)-2-butanesulfonamide], for which the 50% effective concentration (EC50) was found to be 110 nM.
On to `Cc1cnc([C@@H](C)[C@H](C)S(=O)(=O)Nc2nnc(-c3ccccc3)n2-c2c(F)cccc2F)nc1` [Example 40.0, (2S,3R)-N-(4-(2,6-difluorophenyl)-5-phenyl-4H-1,2,4-triazol-3-yl)-3-(5-methyl-2-pyrimidinyl)-2-butanesulfonamide], for which the EC50 is 4.4 nM.
Regarding `CO[C@H](c1ncc(Cl)cn1)[C@H](C)S(=O)(=O)Nc1nnc(-c2cccc3nn(C)cc23)n1C(C)C` [Example 116.0], the EC50 worked out at 220 nM.
In the case of `COc1ccnc(OC)c1-n1c(NS(=O)(=O)[C@@H](C)[C@H](OC)c2ncc(C)cn2)nnc1-c1ccccc1` (single isomer, unassigned) [Example 23.0, (1R,2S,P)-N-(4-(2,4-dimethoxy-3-pyridinyl)-5-phenyl-4H-1,2,4-triazol-3-yl)-1-methoxy-1-(5-methyl-2-pyrimidinyl)-2-propanesulfonamide or (1R,2S,M)-N-(4-(2,4-dimethoxy-3-pyridinyl)-5-phenyl-4H-1,2,4-triazol-3-yl)-1-methoxy-1-(5-methyl-2-pyrimidinyl)-2-propanesulfonamide] it was 5.9 nM.
As for `COc1ncnc(OC)c1-n1c(NS(=O)(=O)[C@@H](C)[C@@H](OC(C)C)c2ncc(C)cn2)nnc1-c1ccccc1` [Example 14.0, (1S,2S)-N-(4-(4,6-dimethoxy-5-pyrimidinyl)-5-phenyl-4H-1,2,4-triazol-3-yl)-1-(1-methylethoxy)-1-(5-methyl-2-pyrimidinyl)-2-propanesulfonamide], the EC50 amounted to 0.55 nM.
For `CO[C@H](c1ncc(Cl)cn1)[C@H](C)S(=O)(=O)Nc1nnc(-c2cccc(OC(F)F)c2)n1C1CC1` [Example 122.0, (1R,2S)-1-(5-Chloropyrimidin-2-yl)-N-(4-cyclopropyl-5-(3-(difluoromethoxy)phenyl)-4H-1,2,4-triazol-3-yl)-1-methoxypropane-2-sulfonamide] the value was 250 nM; for `COc1cccc(OC)c1-n1c(NS(=O)(=O)[C@@H](C)[C@H](C)c2ncc(Cl)cn2)nnc1-c1ccccc1` [Example 16.0, (2S,3R)-3-(5-chloro-2-pyrimidinyl)-N-(4-(2,6-dimethoxyphenyl)-5-phenyl-4H-1,2,4-triazol-3-yl)-2-butanesulfonamide], 0.2 nM; for `COc1ccnc(OC)c1-n1c(NS(=O)(=O)[C@@H](C)[C@H](OC)c2ncc(C)cn2)nnc1-c1ccccc1` (single isomer, unassigned) [Example 24.0, (1R,2S,P)-N-(4-(2,4-dimethoxy-3-pyridinyl)-5-phenyl-4H-1,2,4-triazol-3-yl)-1-methoxy-1-(5-methyl-2-pyrimidinyl)-2-propanesulfonamide or (1R,2S,M)-N-(4-(2,4-dimethoxy-3-pyridinyl)-5-phenyl-4H-1,2,4-triazol-3-yl)-1-methoxy-1-(5-methyl-2-pyrimidinyl)-2-propanesulfonamide], 0.27 nM.
For `COC[C@H](C)n1c(NS(=O)(=O)[C@@H](C)[C@H](C)c2ncc(Cl)cn2)nnc1-c1ccccc1` [Example 126.0] the value was 17 nM.
In the case of `CO[C@H](c1ncc(Cl)cn1)[C@H](C)S(=O)(=O)Nc1nnc(-c2ccccc2)n1C(C)C` [Example 110.0] it was 75 nM.
For `COc1cccc(OC)c1-n1c(NS(=O)(=O)[C@@H](C)[C@@H](OC(C)C)c2ncc(C)cn2)nnc1-c1ccccc1` [Example 13.0, (1S,2S)-N-(4-(2,6-dimethoxyphenyl)-5-phenyl-4H-1,2,4-triazol-3-yl)-1-(1-methylethoxy)-1-(5-methyl-2-pyrimidinyl)-2-propanesulfonamide], the EC50 was 0.22 nM.
In the case of `COc1ccnc(OC)c1-n1c(NS(=O)(=O)[C@@H](C)[C@H](C)c2cnc(C)cn2)nnc1-c1ccccc1` (single isomer, unassigned) [Example 54.0, (2S,3R,P)-N-(4-(2,4-dimethoxy-3-pyridinyl)-5-phenyl-4H-1,2,4-triazol-3-yl)-3-(5-methyl-2-pyrazinyl)-2-butanesulfonamide or (2S,3R,M)-N-(4-(2,4-dimethoxy-3-pyridinyl)-5-phenyl-4H-1,2,4-triazol-3-yl)-3-(5-methyl-2-pyrazinyl)-2-butanesulfonamide] it was 14 nM; in that of `COc1cccc(OC)c1-n1c(NS(=O)(=O)[C@@H](C)[C@H](OC)c2ncc(C)cn2)nnc1-c1cccc(Cl)c1` [Example 87.0, (1R,2S)-N-(5-(3-chlorophenyl)-4-(2,6-dimethoxyphenyl)-4H-1,2,4-triazol-3-yl)-1-methoxy-1-(5-methyl-2-pyrimidinyl)-2-propanesulfonamide], 0.56 nM.
For `Cc1cnc([C@@H](C)[C@H](C)S(=O)(=O)Nc2nnc(-c3cccc4nn(C)cc34)n2C2CCOCC2)nc1` [Example 120.0] the value was 590 nM.
In the case of `COc1ncnc(OC)c1-n1c(NS(=O)(=O)[C@@H](C)[C@H](OC)c2ncc(Cl)cn2)nnc1-c1cccc2cn(C)nc12` [Example 94.0] it was 2.9 nM.
For the compound `COc1cccc(OC)c1-n1c(NS(=O)(=O)[C@H]2C[C@@H](OC(C)C)CN(c3ncc(F)cn3)C2)nnc1-c1ccccc1` (single isomer, unassigned) [Example 58.0, (3R,5S)-N-(4-(2,6-dimethoxyphenyl)-5-phenyl-4H-1,2,4-triazol-3-yl)-1-(5-fluoro-2-pyrimidinyl)-5-(1-methylethoxy)-3-piperidinesulfonamide or (3S,5R)-N-(4-(2,6-dimethoxyphenyl)-5-phenyl-4H-1,2,4-triazol-3-yl)-1-(5-fluoro-2-pyrimidinyl)-5-(1-methylethoxy)-3-piperidinesulfonamide], the EC50 is 0.94 nM.
`COc1ncnc(OC)c1-n1c(NS(=O)(=O)[C@H]2CCCN(c3ncc(C)cn3)C2)nnc1-c1ccccc1` (single isomer, unassigned) [Example 30.0, (S)—N-(4-(4,6-Dimethoxypyrimidin-5-yl)-5-phenyl-4H-1,2,4-triazol-3-yl)-1-(5-methylpyrimidin-2-yl)piperidine-3-sulfonamide or (R)—N-(4-(4,6-dimethoxypyrimidin-5-yl)-5-phenyl-4H-1,2,4-triazol-3-yl)-1-(5-methylpyrimidin-2-yl)piperidine-3-sulfonamide]: the EC50 is 100 nM.
Regarding `CO[C@H](c1ncc(Cl)cn1)[C@H](C)S(=O)(=O)Nc1nnc(-c2cccc(S(C)(=O)=O)c2)n1C1CC1` [Example 121.0, (1R,2S)-1-(5-Chloropyrimidin-2-yl)-N-(4-cyclopropyl-5-(3-(methylsulfonyl)phenyl)-4H-1,2,4-triazol-3-yl)-1-methoxypropane-2-sulfonamide], the EC50 was found to be 590 nM.
On to `COc1ncnc(OC)c1-n1c(NS(=O)(=O)[C@@H](C)Cc2ncc(F)cn2)nnc1-c1ccccc1` (single isomer, unassigned) [Example 9.0, (2S)-N-(4-(4,6-dimethoxy-5-pyrimidinyl)-5-phenyl-4H-1,2,4-triazol-3-yl)-1-(5-fluoro-2-pyrimidinyl)-2-propanesulfonamide or (2R)-N-(4-(4,6-dimethoxy-5-pyrimidinyl)-5-phenyl-4H-1,2,4-triazol-3-yl)-1-(5-fluoro-2-pyrimidinyl)-2-propanesulfonamide], for which the EC50 was 40 nM.
Take `COc1ccc(OC)c(-c2nnc(NS(=O)(=O)[C@@H](C)[C@H](OC)c3ncc(C)cn3)n2-c2c(OC)cccc2OC)c1` [Example 79.0, (1R,2S)-N-(5-(2,5-dimethoxyphenyl)-4-(2,6-dimethoxyphenyl)-4H-1,2,4-triazol-3-yl)-1-methoxy-1-(5-methyl-2-pyrimidinyl)-2-propanesulfonamide]: the EC50 came to 3.8 nM.
For `COc1ncnc(OC)c1-n1c(NS(=O)(=O)[C@@H](C)[C@H](OC)c2ncc(C)cn2)nnc1-c1cccc(Br)c1` [Example 1.0, (1R,2S)—N-(5-(3-Bromophenyl)-4-(4,6-dimethoxypyrimidin-5-yl)-4H-1,2,4-triazol-3-yl)-1-methoxy-1-(5-methylpyrimidin-2-yl)propane-2-sulfonamide], the EC50 turned out to be 4.2 nM.
On to `COc1ccnc(OC)c1-n1c(NS(=O)(=O)[C@@H](C)[C@H](OC)c2ncc(C)cn2)nnc1-c1ccccc1` [Example 36.0, (1R,2S,P)-N-(4-(2,4-dimethoxy-3-pyridinyl)-5-phenyl-4H-1,2,4-triazol-3-yl)-1-methoxy-1-(5-methyl-2-pyrimidinyl)-2-propanesulfonamide and (1R,2S,S)-N-(4-(2,4-dimethoxy-3-pyridinyl)-5-phenyl-4H-1,2,4-triazol-3-yl)-1-methoxy-1-(5-methyl-2-pyrimidinyl)-2-propanesulfonamide], for which the concentration for a half-maximal effect (EC50) came out at 1.9 nM.

Broadly, the EC50 is the concentration that produces a half-maximal response.
